US20100234463A1, “Method for Identifying Modulators of Gamma Secretase or Notch” (priority 2005, published 2010)

Legend:
Aβ40 = test: Quantification of Aβ40 in cell-conditioned media by ECL; type: cell-based, human; conditions: 24 hours
Method: (§1) Human embryonic kidney (HEK) 293 cells stably over-expressing β-amyloid precursor protein (βAPP695) and c-myc-tagged NotchΔE (M1727V) have been previously described (Beher, D. et al., J. Biol Chem. 276: 45394-45402, (2001)). Cells were routinely maintained in Dulbecco's modified Eagle's medium (DMEM) supplemented with 10% (v/v) fetal calf serum (FCS, Invitrogen™, Carlsbad, Calif.), 1 μg/ml puromycin (Sigma-Aldrich, St. Louis, Mo.) to maintain βAPP expression and 100 μg/ml zeocin (Life Technologies, Inc., Rockville, Md.) to select for NotchΔE expression. Cells were passaged on a weekly basis using 1:10 split ratio.
(§2) On the day of the assay, media was removed and cells washed with phosphate-buffered saline (PBS, Sigma-Aldrich, St. Louis, Mo.), followed by incubation with 1.5 ml Accutase (PAA Laboratories GmbH, Pasching, Austria) at 37° C. for 10 minutes to detach cells. DMEM supplemented with 10% (v/v) FCS was added and the cell suspension centrifuged for 5 minutes at 1120 prm. […] A further 9 ml DMEM supplemented with 0.4% (v/v) FCS was added and cells counted.
(§3) Cells were plated in poly-d-lysine coated 96-well plates (Becton Dickinson, Fullerton, Calif.) at 10,000 cells/well in DMEM supplemented with 0.4% (v/v) FCS (Invitrogen™, Carlsbad, Calif.). […] Cell conditioned media was removed for quantification of Aβ peptides and the cell monolayer fixed by incubating with 3.7% (v/v) formaldehyde (Sigma-Aldrich, St. Louis, Mo.) in PBS at room temperature for fifteen minutes.
Aβ peptides secreted into the media were quantified using an electrochemiluminescence (ECL) assay in a 96-well plate format (Sector HTS™ analyzer, Meso Scale Discovery® a division of Meso Scale Diagnostics™, LLC (MSD™), Gaithersburg, Md.). […] Plates were washed with PBS (three times, five minutes each) and media replaced with 150 μl Read buffer S (Meso Scale Discovery®) prior to detecting Aβ40 and Aβ42 using the Sector HTS™ Analyzer. […]
Mean values for vehicle control and compound C treated cells were calculated. […] Percent control values were calculated using the following formula: […]

Notch = test: NICD nuclear translocation high content screening assay (ArrayScan); type: cell-based, human
Method: as §1, §2, §3
Cells were washed with PBS (three times, five minutes each) and incubated with 0.1% Triton-X in PBS for 90 seconds at room temperature. […] After washing with PBS (three times, five minutes each), the plates were sealed and transferred to a Cellomics™ ArrayScan® 4.0 (Cellomics Inc, Pittsburgh, Pa.) for quantification of NICD translocation.
Automated image capture and quantification of NICD nuclear translocation was performed using a Cellomics™ ArrayScan® 4.0 and the Cytoplasm to Nucleus Translocation BioApplication software (Cellomics, Pittsburgh, Pa.). […]

γ-secretase = conditions: reported; cited from earlier work
Aβ42 [1] = conditions: cited from earlier work
Aβ42 [2] = test: Quantification of Aβ42 in cell-conditioned media by ECL; type: cell-based, human; conditions: 24 hours
Method: as §1
as §2, with “cells.” for “cells. DMEM supplemented with 10% (v/v) FCS was added and the cell suspension centrifuged for 5 minutes at 1120 prm.”
as §3, with “minutes. […]” for “minutes.”

Row | IC50 (Aβ40; HEK293 βAPP695 NotchΔE cells) [µM] | IC50 (Notch; NICD nuclear translocation, 24 hours) [µM] | IC50 (Aβ42 [2]; HEK293 βAPP695 NotchΔE cells) [µM] | SMILES | effect on Aβ40 levels (Aβ40; increasing concentrations) | inhibition of NICD nuclear translocation over time (Notch; 10 μM, up to twenty four hours) | potency for inhibition of Aβ40 versus Aβ42 peptides (γ-secretase) | concentrations at which Aβ40 peptide generation was inhibited (Aβ40) [µM] | concentrations with no effect on NICD nuclear translocation (Notch; 24 hours) | reported effect on Aβ42 (Aβ42 [1]) | effect on Aβ42 peptide levels (Aβ42 [2]; increasing concentrations)
1 |  |  |  | CC(C)C[C@H](NC(=O)[C@H](Cc1ccccc1)C[C@@H](O)[C@H](Cc1ccccc1)NC(=O)OC(C)(C)C)C(=O)N[C@@H](Cc1ccccc1)C(N)=O [C] | declined | Time-dependant inhibition | equivalent potency |  |  |  | 
2 | > 1000 | > 1000 | 9.24 | C[C@@H](C(=O)O)c1ccc(-c2ccccc2)c(F)c1 [Compound F] |  |  |  | ≥ 30 | up to 1000 μM | preferentially inhibit Aβ42 | selectively reduced
